Measured values from patent US20180303878A1, “TREATMENT FOR INFECTION COMPOSED OF MENSTRUAL STEM CELLS” (CELLS FOR CELLS, S.P.A., priority 2015, published 2018).

Legend:
Assay type in all cases: in vivo, C57BL6/j mice
CLP-induced sepsis [1] = assay: Survival in polymicrobial CLP-induced sepsis (Kaplan-Meier); conditions: 96 hours after treatment; treatment 3 hours after CLP; MenSCs 7.5×10^5 cells/mice intra-peritoneal, Enrofloxacin 5 mg/kg
Description: (§1) In vivo studies were performed at the Universidad de los Andes-Cells for Cells Animal Facility (Santiago, Chile) in accordance with the institutional guidelines for the care and use of laboratory animals in research, revised and approved by the Institutional Ethical Committee for animal experimentation. C57BL6/j mice (8 to 12 weeks old; Jackson Laboratories, Bar Harbor, Me., USA) received ad libitum access to food and water during the whole experimental procedure. CLP-induced sepsis was performed as described previously (Rittirsch D et al., Immunodesign of experimental sepsis by cecal ligation and puncture. Nat Protoc. 2009) with some modifications. Briefly, mice were anesthetized with inhaled Sevofluorane (Baxter, Guayama, Puerto Rico) by using an anesthetic vaporizer. […]
(§2) Three hours after CLP-induced sepsis, mice were randomized and distributed into different experimental groups to receive single injections of saline (vehicle) (n=16), antibiotics (AB) (n=22), MenSCs (n=21), MenSCs+AB (n=22), MenSC CM (n=16), or MenSC CM+AB (n=22). […] For Kaplan-Meier survival curves, animals were assessed after CLP-induced sepsis every 12 hours for 4 days. […]
Data are expressed as mean±standard error. […]

CLP-induced sepsis [2] = assay: Cytokine multiplex array evaluation in CLP mice; conditions: 40 hours post-CLP, P≤0.05
Description: as §1
The levels of inflammatory cytokines-monocyte chemoattractant protein-1 (MCP-1), TNF-α, IL-6, and […]—in CLP mice serum samples were determined by using a commercial BD™ Cytometric Bead Array Mouse Inflammation Kit (BD Biosciences Pharmingen, San Diego, Calif., USA) in accordance with the instructions of the manufacturer. Analysis was carried out by flow cytometry, and the concentration (in picograms per milliliter) was determined by using FCAP Array software (BD Biosciences). The parameters were determined 24 and 40 hours after CLP surgery.

CLP-induced sepsis [3] = assay: Bacterial numbers in blood, peritoneal cavity and spleen in CLP-induced sepsis; conditions: 24 hours post-CLP, in comparison with saline group, P≤0.05
Description: as §1, with “vaporizer. After a 1-cm incision was performed, the cecum was exposed and ligated in the middle portion with 5-0 dafilon suture (Braun, Rubi, Spain), punctured once with an 18-gauge needle (in order to induce high-grade sepsis), and returned to the peritoneal cavity. The abdominal incision was sutured with catgut 5-0 (Braun, Bogota, Colombia), and the skin was closed with Histoacryl (Braun).” for “vaporizer.”
Total blood, peritoneal fluid, and homogenized spleen in sterile saline were plated in a 10-fold dilution on blood agar plates and incubated at 37° C. overnight, and the number of CFUs was determined.

CLP-induced sepsis [4] = assay: Blood biochemical analysis in CLP mice; conditions: serum 24 hours post-surgery; sham 47.67±3.18, saline 90±21.47
Description: as §1, with “modifications.” for “modifications. Briefly, mice were anesthetized with inhaled Sevofluorane (Baxter, Guayama, Puerto Rico) by using an anesthetic vaporizer.”
as §2
Plasma levels of blood urea nitrogen (BUN), bilirubin, alanine aminotransferase (ALT), aspartate aminotransferase (AST), alkaline phosphatase (ALP), albumin, amylase, and glucose were evaluated by using the Piccolo Xpress™ Chemistry Analyzer (Abaxis, Union City, Calif., USA) in accordance with the instructions of the manufacturer. […]

## CCN1CCN(c2cc3c(cc2F)c(=O)c(C(=O)O)cn3C2CC2)CC1 [AB, Enrofloxacin]
CLP-induced sepsis [1]
  survival rate: 73%
CLP-induced sepsis [2]; in comparison with saline group
  IL-6 serum levels: decreased
CLP-induced sepsis [2]; in comparison with untreated mice
  levels of IL-10: reduction
CLP-induced sepsis [3]
  CFU counts in peritoneal lavage: decreased
CLP-induced sepsis [4]
  alkaline phosphatase (ALP) concentration: 74.25±12.03 U/l
